Measured values reported in patent publication US12655171B2, “Compounds for activating invariant natural killer T-cells and methods of use in eliminating inflammatory senescent cells” (Deciduous Therapeutics, Inc., priority 2021, dated 2026).

Key:
human iTCR [1] = assay: % GFP hiNKT binding (recombinant protein CD1d + JiNKT); type: cell-based
primary human iNKT cells = assay: Cytokine secretion of primary human iNKT cells co-cultured with drug-loaded BWSTIM cells; type: cell-based; conditions: for secretion of IFNγ / secretion of IL-4 / secretion of IL-6 / secretion of TNFα: GVK compounds vs absence of drug loading, α-GalCer vs GVK compounds, media collected 2 days later, FIG. 6C; for Primary iNKT cytokine release: IL-4, IL-6, IFNγ or TNFα
Experimental: In order to determine the activation profile induced by the compounds described herein, primary human iNKT cells were co-cultured with drug-loaded BWSTIM cells.
Day 0: PBMCs were isolated from human blood using the STEMCELL TECHNOLOGIES™ SepMate™ PBMC isolation system. iNKT cells were then selected using the Miltenyi NKT magnetic cell separation kit.
Day 2: DCD molecules or α-GalCer were both dissolved in DMSO at a 5 mg/mL stock solution. BWSTIM cells were fixed with mitomycin C, then loaded with 10 μg/mL of DCD molecules or α-GalCer for 4 hours at 37° C. at a concentration of 20 k cells/well in 200 μL of media in a u-bottom 96 well dish. Cells were co-cultured with 80 k 6B11+ selected primary human iNKT cells.
D4: Media was collected. Cytokines were measured using the Satorious 4Plex kit on the iQue3 cytometer.
GVK molecules or α-GalCer were both dissolved in DMSO at a 5 mg/mL stock solution. BWSTIM cells were loaded with compounds for 4 hours at 37° C. at a concentration of 20 k cells/well in 200 μL of media in a u-bottom 96 well dish. Cells were co-cultured with 100 k 6B11+ selected primary human iNKT cells. Media was collected 2 days later. Cytokines were measured using the Satorious 4Plex kit on the iQue3 cytometer.

human iTCR [2] = assay: In vitro activation of human iTCR through Jurkat reporter cell line (JiNKT, GFP under NFkB promoter) with drug-loaded BWSTIM cells; type: cell-based; conditions: 1 μg/mL; for GFP expression compared to the negative control: BWSTIM + JiNKT, 24 hours, FIG. 6A; for % GFP hiNKT binding (BWSTIM + JiNKT) 1 μg/mL, away from negative control: difference from negative control
Experimental: In order to determine the human iTCR activation potential induced by the compounds described herein, a jurkat cell line (JiNKT) was transfected with the human iTCR, and GFP under the NFkB promoter (cell line licensed from the Medical University of Vienna). A BWS147 cell line (BWSTIM) was also transfected with CD80 and CD1d to act as the antigen-presenting cell.
(§1) DCD molecules or α-GalCer were both dissolved in DMSO at a 5 mg/mL stock solution. BWSTIM cells were loaded with DCD molecules or α-GalCer at varying concentrations for 4 hours at 37° C. at a concentration of 20 k cells/well in 200 μL of media in a u-bottom 96 well dish. BWSTIM cells were washed 2× with media, then incubated with JiNKT cells at a concentration of 80 k cells/well in a u-bottom 96 well dish. Cells were co-cultured for 18 to 24 hours. The percentage of cells expressing high levels of GFP was measured through flow cytometry (after gating out the mCD45+ BWSTIM cells).
(§2) A jurkat cell line (JiNKT) was transfected with the human iTCR, and GFP under the NFkB promoter. A BWS147 cell line (BWSTIM) was also transfected with CD80 and CD1d to act as the antigen-presenting cell. A mouse iNKT hybridoma cell line (DN3.2) was also used as the iNKT. […]
as §1, with “GVK” for “DCD”, “compounds” for “DCD molecules or α-GalCer at varying concentrations”, “for” for “for 18 to”, “cytometry. 1 μg/mL of molecule GVK1a, GVK1b, GVK1c, or GVK1f was incubated with BWSTIM+JiNKT, and compared to α-GalCer.” for “cytometry (after gating out the mCD45+ BWSTIM cells).”

IFNγ = assay: Diet induced obesity (HFD) mouse model: serum IFNγ (ELISA); type: in vivo, C57BL/6J mice
Experimental: (§3) Senescence is a feature of pre-adipocytes in obese individuals. To study the efficacy of the molecules described herein in decreasing senescence in fat, a diet induced obesity high fat diet (HFD) mouse model was used. 22-week-old HFD mice were injected with α-GalCer as a control and compared with the compounds of the present disclosure. The blood and spleen (or adipose tissue) were collected to measure iNKT activation and expansion, respectively. Cells in the eWAT (adipose tissue) were also collected and measured for % senescent cells. HFD mice were compared to non-HFD (normal diet) mice.
(§4) 22-week-old C57BL/6J mice on a chow or high-fat diet (HFD) were injected (I.P) with […] of α-GalCer, compound DCD-101 or compound DCD-154. Molecules were either dissolved in DMSO at a 5 mg/mL stock solution, or formulated into liposomes through thin-film rehydration, then extrusion through 200 nm filters. Liposome-based formulations were constructed using soy phosphatidylcholine, cholesterol, and DCD or α-GalCer in a 2:1:0.15 ratio. Two or twenty hours post-injection, blood was collected from the tail to measure the level of IFNγ using ELISA. Four days post-injection, mice were sacrificed to collect eWAT or spleen. Spleen was used to measure the number of iNKT cells, and eWAT was used to measure the number of iNKT cells and senescent cells using flow cytometry. iNKT cells were identified in the digested adipose tissue by gating live cells and mouse CD1d-α-GalCer tetramer+ cells. Senescent cells were measured withing the processes adipose tissue by selecting mCD45− cells, and C12FDG^HIGH cells.

senescent cells = assay: Selective killing of senescent cells in vitro by activated human iNKT cells; type: cell-based
Experimental: Human iNKT cells were isolated and activated by incubation with α-GalCer. Activated iNKT cells were combined with samples containing healthy cells and senescent cells.

senescent cells in eWAT = assay: Diet induced obesity (HFD) mouse model: senescent cells (C12FDG+) in eWAT; type: in vivo, C57BL/6J mice; conditions: HFD mice, four days post-injection; FIG. 5E
Experimental: as §3, §4

iNKT cells = assay: Diet induced obesity (HFD) mouse model: iNKT cell expansion in spleen or eWAT; type: in vivo, C57BL/6J mice; conditions: HFD mice, I.P. 2 g, four days post-injection
Experimental: as §3, §4

mouse iTCR = assay: In vitro activation of mouse iTCR, DN3.2 iNKT hybridoma with drug-loaded BWSTIM cells, IL-2 secretion; type: cell-based; conditions: 48 hours co-culture; FIG. 6B
Experimental: In order to determine the mouse iTCR activation potential induced by the compounds described herein, a mouse iNKT hybridoma cell line (DN3.2) from the La Jolla Institute for Allergy and Immunology were used as the iNKT. The BWS147 cell line (BWSTIM) with CD80 and CD1d acted as the antigen-presenting cell.
DCD molecules or α-GalCer were both dissolved in DMSO at a 5 mg/mL stock solution. BWSTIM cells were loaded with DCD molecules or α-GalCer of varying concentrations for 4 hours at 37° C. at a concentration of 20 k cells/well in 200 μL of media in a u-bottom 96 well dish. BWSTIM cells were washed 2× with media, then incubated with DN3.2 cells at a concentration of 80 k cells/well in a u-bottom 96 well dish. Cells were co-cultured for 48 hours. Media was collected and IL-2 was measured using the CisBio HTRF ELISA detection kit.
as §2
GVK molecules or α-GalCer were both dissolved in DMSO at a 5 mg/mL stock solution. BWSTIM cells were loaded with compounds for 4 hours at 37° C. at a concentration of 20 k cells/well in 200 μL of media in a u-bottom 96 well dish. BWSTIM cells were washed 2× with media, then incubated with DN3.2 cells at a concentration of 80 k cells/well in a u-bottom 96 well dish. Cells were co-cultured for 48 hours. Media was collected and IL-2 was measured using the CisBio HTRF ELISA detection kit.

DN3.2 = assay: IL-2 Secretion (A20 + DN3.2); type: cell-based, mouse

SMILES	% GFP hiNKT binding (recombinant protein CD1d + JiNKT) (human iTCR [1])	secretion of IFNγ (primary human iNKT cells)	secretion of IL-4 (primary human iNKT cells)	secretion of IL-6 (primary human iNKT cells)	secretion of TNFα (primary human iNKT cells)	GFP expression compared to the negative control (human iTCR [2])	% GFP hiNKT binding (BWSTIM + JiNKT) 1 μg/mL (human iTCR [2]; % GFP)	levels of IFNγ in the HFD model (IFNγ; twenty hours post injection, FIG. 5D)	levels of serum IFNγ in the HFD model (IFNγ; two hours post injection, FIG. 5C)	killing of senescent vs non-senescent cells by iNKT cells activated by the compound (senescent cells; evaluated after 8 hours and 18 hours, FIG. 7B)	presence of senescent vs non-senescent cells on incubation with iNKT cells activated by the compound (senescent cells; over a period of 18 hours, FIG. 7A)	accumulation of senescent cells (C12FDG+) in eWAT (senescent cells in eWAT)	expansion of immune (iNKT) cells in HFD mouse spleen (iNKT cells; FIG. 5A)	expansion of immune (iNKT) cells in HFD mouse eWAT (iNKT cells; percent iNKT cells of live cells, FIG. 5B)	expression of IL-2 in the DN3.2 cell line when loaded on BWSTIM CD1d (mouse iTCR)	Primary iNKT cytokine release (primary human iNKT cells)	% GFP hiNKT binding (BWSTIM + JiNKT) 1 μg/mL, away from negative control (human iTCR [2])	IL-2 Secretion (A20 + DN3.2) (DN3.2)
CCCCCCCCCCCCCCCCCCCCCCCCCC(=O)N[C@@H](CO[C@H]1O[C@H](CO)[C@H](O)[C@H](O)[C@H]1O)[C@H](O)[C@H](O)CCCCCCCCCCCCCC [α-GalCer, Alpha-galactosylceramide, reference compound]	% 30	significantly greater increase in the secretion	significantly greater increase in the secretion	significantly greater increase in the secretion	significantly greater increase in the secretion	induction remained high	% 40-70	significantly increased levels of IFNγ	significantly increased levels of IFNγ	senescent cells were selectively killed whereas non-senescent cells were maintained	reduction in the presence of senescent cells over time whereas non-senescent cells were maintained	effective in decreasing the accumulation of senescent cells in eWAT	caused expansion of immune cells in HFD mouse spleen	caused expansion of immune cells in HFD mouse eWAT	–	–	–	–
CCCCCCCCCCCCCCCCCCCCCCCCCC(=O)N[C@@H](CCC1OC(CO)C(O)C(O)C1O)[C@@H](O)[C@H](O)CCCCCCCCCCCCCC (stereo partly shown) [GVK1b]	–	did not increase secretion	did not increase secretion	did not increase secretion	did not increase secretion	did not induce GFP expression higher than the negative control	–	–	–	–	–	–	–	–	did not induce expression of IL-2	No activation	% <5 away from	Does not
CCCCCCCCCCCCCCCCCCCCCCCCCC(=O)N[C@@H](CCC1OC(CO)C(O)C(O)C1O)[C@@H](O)[C@H](O)CCCCCCCCCCCCCC (stereo partly shown) [GVK1a]	–	did not increase secretion	did not increase secretion	did not increase secretion	did not increase secretion	did not induce GFP expression higher than the negative control	–	–	–	–	–	–	–	–	–	No activation	% <5 away from	Activated
